Reference: US11773352B2, “Hydrochlorofluoroolefins and methods of using same” (3M INNOVATIVE PROPERTIES COMPANY, priority 2018, dated 2023)

Experiments:
[1] = Largest Soluble Hydrocarbon (LSH) test; format: physicochemical; conditions: compound:hydrocarbon about 1:1 to 1:2 by weight
Protocol: Largest Soluble Hydrocarbon (LSH): The LSH of each hydrofluoroolefin compound was determined by mixing the compound with hydrocarbons of varying molecular weight (CnH2n+2, where n=9 to 24) in a hydrofluoroolefin:hydrocarbon ratio of about 1:1 to 1:2 by weight at room temperature (25° C.) and at 50° C. […] A larger value of n is interpreted herein to indicate a greater ability of the hydrofluoroolefin to clean hydrocarbons.
The results presented in Table 2 indicate that the hydrofluoroolefins of the present invention are highly suitable fluids for cleaning applications.

[2] = Atmospheric lifetime from rate of reaction with hydroxyl radicals; format: physicochemical; conditions: gas phase, relative to reference compounds such as chloromethane and ethane, FTIR
Protocol: Atmospheric lifetime: The atmospheric lifetime of Example 1 was determined from the rate of reaction with hydroxyl radicals. The pseudo-first order rate for the reaction of the gaseous hydrobromofluoroolefin with hydroxyl radical was measured in a series of experiments relative to reference compounds such as chloromethane and ethane. The measurements were performed in a 5.7 L, heated FTIR gas cell equipped with a polished semiconductor-grade quartz window. An Oriel Instruments UV Lamp, Model 66921 equipped with a 480 W mercury-xenon bulb was used to generate hydroxyl radicals by photolyzing ozone in the presence of water vapor. The concentrations of the hydrobromofluoroolefin and the reference compound were measured as a function of reaction time using an I-Series FTIR from Midac Corporation, Westfield, Mass., US. The atmospheric lifetime was calculated from the reaction rates for the hydrobromofluoroolefin relative to the reference compounds and the reported lifetime of the reference compounds as shown below:
[formula] where τx is the atmospheric lifetime of hydrobromofluoroolefin, τr is the atmospheric lifetime of the reference compound, and kx and kr are the rate constants for the reaction of hydroxyl radical with hydrobromofluoroolefin and the reference compound, respectively. Sample Preparation

[3] = 25° C., longest hydrocarbon compatible without haze
[4] = 50° C., largest hydrocarbon used C-23

Structure (SMILES)	LSH (n in CnH2n+2) [1, 3]	LSH (n in CnH2n+2) [1, 4]	atmospheric lifetime [2] [years]
COC1=C(Cl)C(F)(F)C(F)(F)C1(F)F [Example 4, 1-Chloro-3,3,4,4,5,5-hexafluoro-2-methoxycyclopent-1-ene]	19	>23	–
COC(=C(Cl)C(F)(F)F)C(F)(F)F [Example 1, 2-Chloro-1,1,1,4,4,4-hexafluoro-3-methoxybut-2-ene]	19	>23	0.04
